# Assay results taken from ChEMBL document CHEMBL1148060, “Biosynthetic Study and Radioisotope Labeling of Inostamycin” (J Nat Prod, 1994).
# Test system: NRK
# Experiment: Cellular uptake in rat NRK cells assessed as [14C]inostamycin level after 2 hrs
# Type: ADME, cell-based
smiles,measurement,value
CCC[C@H](O)[C@@]1(CC)C[C@@H](C)[C@](O)([C@]2(C)C[C@H](C)[C@@H]([C@@H](CC)C(=O)[C@@H](C)[C@@H](O)[C@H](C)[C@H]3O[C@@](O)([C@H](CC)C(=O)O)[C@@H](C)[C@H](O)[C@H]3CC)O2)O1 [INOSTAMYCIN],Activity,Dose-dependent effect
